Like-named read-outs stand apart in the source and are kept apart here.
Experiment: Suramin plasma pharmacokinetics by LC-MS/MS, two compartment population PK model, pediatric patients
Type: in vivo, human
Details: for concentration at 1 h: read-out: 1-Hour Plasma Conc; for concentration at 45 days: read-out: 45-Day Plasma Conc; for concentration at 2 days: read-out: 2-Day Plasma Conc
Procedure: For the test dose, 50 mg of suramin hexasodium (Bayer Pharmaceuticals, Inc.) in 5 mL of saline (experimental arm, 5 patients), or 5 mL of saline only (control arm, 5 patients) were given by slow intravenous (IV) push over 3 minutes, followed by a 10 mL flush of saline. One hour after the test dose, vital signs were repeated and a single infusion of either suramin (20 mg/kg, minus the 50 mg test dose, in 50 mL, up to a maximum of 1 gram) or saline (50 mL IV) was given over 30 minutes, followed by a 10 mL flush of saline.
Suramin pharmacokinetics was assessed by serum isolation at the 4 time points immediately before and after the infusion. […] Unexpected and adverse events were recorded as they occurred and graded in severity according to the National Cancer Institute Common Terminology Criteria for Adverse Events v4.03 (CTCAE) scale. Additional pharmacovigilence monitoring included daily scripted phone calls in the first week, then 4 weekly calls until the exit examinations at 6 weeks.
Heparinized plasma, 90 μl was prepared for LC-MS/MS analysis. Ten (10) μl of 50 μM stock of trypan blue was added to achieve an internal standard concentration of 5μM. This was incubated at room temperature for 10 min to permit metabolite interaction with binding proteins, then extracted with 4 volumes (400 μl) of pre-chilled methanol-acetonitrile (50:50) to produce a final concentration of 40:40:20 (methanol:acetonitrile:H2O), and precipitated on ice for 10 minutes. The samples were deproteinated and macromolecules removed by precipitation on crushed ice for 10 min.
The mixture was centrifuged at 16,000g for 10 min at 4° C. and the supernatant was transferred to a new tube and kept at −80° C. for further LC-MS/MS analysis.
Suramin was detected in the prepared samples on an AB SCIEX QTRAP 5500 triple quadrupole mass spectrometer equipped with a Turbo V electrospray ionization (ESI) source, Shimadzu LC-20A UHPLC system, and a PAL CTC autosampler. […] The mobile phase A was water with 20 mM ammonium acetate (NH4OAC) (pH 7) and mobile phase B was methanol with 20 mM NH4OAC (pH 7). […] The flow rate was 400 μl/min. All the samples were kept at 4° C. during analysis. Suramin and trypan blue were detected using MRM scanning mode with the dwell time of 180 ms. […] Absolute concentrations of suramin were determined using a standard curve prepared in plasma to account for matrix effects, and the peak area ratio of suramin to the internal standard trypan blue. […] The ESI source parameters were set as follows: source temperature 500° C.; curtain gas 30; ion source gas 1, 35; ion source gas 2 35; spray voltage −4500 V. Analyst v1.6 was used for data acquisition and analysis.
The small number of PK samples per subject prevented a standard, non-compartmental analysis in individual subjects. The suramin drug concentrations were analyzed using a population PK approach with post-hoc empiric Bayesian estimate of PK parameters in individual subjects. The PK data were fit to a two compartment model using the computer program NONMEM (ICON, Dublin, Ireland). PK parameters were scaled allometrically with volume terms scaled to linear body weight (kg1.0) and clearance terms scaled to weight (kg0.75). Scaled adult suramin parameters of compartmental volumes of distribution and clearance were used as initial parameter estimates and between subject variability only estimated for clearance (CL) and the peripheral volume of distribution (Vd).

[1] = human, plasma, iv, 20 mg/kg, Mean of 5 subjects, 20 mg/kg (558 mg/m^2) IV
[2] = human, plasma, iv, 460 mg, ID 007, 460 mg (529 mg/m^2) IV
[3] = human, plasma, iv, 460 mg, ID 012, 460 mg (529 mg/m^2) IV
[4] = human, plasma, iv, 500 mg, ID 005, 500 mg (526 mg/m^2) IV
[5] = human, plasma, iv, 680 mg, ID 001, 680 mg (591 mg/m^2) IV
[6] = human, plasma, iv, 1000 mg, ID 014, 1000 mg (613 mg/m^2) IV
[7] = human, plasma, Mean of 5 subjects, 20 mg/kg (558 mg/m^2) IV

Compound: Cc1ccc(C(=O)Nc2ccc(S(=O)(=O)O)c3cc(S(=O)(=O)O)cc(S(=O)(=O)O)c23)cc1NC(=O)c1cccc(NC(=O)Nc2cccc(C(=O)Nc3cc(C(=O)Nc4ccc(S(=O)(=O)O)c5cc(S(=O)(=O)O)cc(S(=O)(=O)O)c45)ccc3C)c2)c1 [Suramin, suramin]
- clearance (20 mg/kg IV): 0.056±0.011 L/hr/m2
- steady-state volume of distribution (20 mg/kg IV): 22.7±2.6 L/m2
- suramin levels (before Day 2, all subjects): below 100 μM
- plasma concentrations maintained (between 2 days and 5-6 weeks following the dose): 1.5 to 15 µM
- half-life (human, plasma, iv, 20 mg/kg, 20 mg/kg IV, read-out: alpha (distribution) phase half-life (converted)): 0.308 ± 0.0229 days
- concentration at 1 h [1]: 104 µM
- concentration at 45 days [1]: 1.54 µM
- half-life (human, plasma, iv, 20 mg/kg, Mean of 5 subjects, 20 mg/kg (558 mg/m^2) IV, read-out: Plasma Half-Life (terminal elimination phase half-life) (converted)): 14.7 days
- concentration at 1 h [2]: 87.9 µM
- concentration at 2 days [2]: 11.9 µM
- concentration at 45 days [2]: 1.67 µM
- concentration at 1 h [3]: 119 µM
- concentration at 2 days [3]: 13.8 µM
- concentration at 45 days [3]: 2.28 µM
- half-life (human, plasma, iv, 460 mg, ID 012, 460 mg (529 mg/m^2) IV, read-out: Plasma Half-Life (converted)): 16.5 days
- concentration at 1 h [4]: 102 µM
- concentration at 2 days [4]: 10.6 µM
- concentration at 45 days [4]: 1.76 µM
- half-life (human, plasma, iv, 500 mg, ID 005, 500 mg (526 mg/m^2) IV, read-out: Plasma Half-Life (converted)): 15 days
- concentration at 1 h [5]: 101 µM
- concentration at 2 days [5]: 13.2 µM
- concentration at 45 days [5]: 0.96 µM
- half-life (human, plasma, iv, 680 mg, ID 001, 680 mg (591 mg/m^2) IV, read-out: Plasma Half-Life (converted)): 12.6 days
- concentration at 1 h [6]: 111 µM
- concentration at 2 days [6]: 10.6 µM
- concentration at 45 days [6]: 1.04 µM
- half-life (human, plasma, iv, 1000 mg, ID 014, 1000 mg (613 mg/m^2) IV, read-out: Plasma Half-Life (converted)): 14.9 days
- clearance (human, plasma, 20 mg/kg IV, read-out: clearance (converted)): 1.95 mL/h/kg
- Vd (human, plasma, 20 mg/kg IV, read-out: steady-state volume of distribution): 0.83 ± 0.014 L/kg
- concentration at 1 h [7]: 104 ± 11.6 µM
- concentration at 2 days [7]: 12 ± 1.5 µM
